Experimental data as given in US6469034B1, “Cyclohexenyl-ethyl-thiourea compounds for inhibiting HIV reverse transcriptase” (Parker Hughes Institute, priority 1999, dated 2002).
Like-named read-outs stand apart in the source and are kept apart here.

Key:
[1] = Microculture tetrazolium assay (MTA, XTT) for cytotoxicity; type: cell-based; settings: for CC50: cytotoxicity, XTT; for toxicity at effective concentrations: in words
[2] = tested on: multidrug resistant HIV-1 strain RT-MDR; experiment: microbe, parasite or virus in culture; type: cell-based; settings: for times more effective against RT-MDR than against HTLVIIIB: ratio RT-MDR vs HTLVIIIB; for times more potent than AZT against RT-MDR: vs AZT; for times more potent than MKC-442 against RT-MDR: vs MKC-442; for times more potent than delavirdine against RT-MDR: vs delavirdine; for times more potent than nevirapine against RT-MDR: vs nevirapine; for times more potent than trovirdine against RT-MDR: vs trovirdine
Experimental: (§1) In addition, the anti-HIV activity of the compounds was measured by determining their ability to inhibit the replication of the HIV-1 strains HTLVIIIB, RT-MDR, A17, and A17 variant in peripheral blood mononuclear cells (PBMC) from healthy volunteer donors, using the method described in Uckun et.al., 1998, Antimicrobial Agents and Chemotherapy 42:383.
(§2) Normal human peripheral blood mononuclear cells (PBMNC) from HIV-negative donors were cultured 72 hours in RPMI 1640 supplemented with 20% (v/v) heat-inactivated fetal bovine serum (FBS), 3% interleukin-2,2 mM L-glutairine, 25 mM HEPES, 2 μL, NAHCO, […] gentamicin, and 4 μg/mL phytohemagglutinin prior to exposure to HIV-1 or other HIV strain at a multiplicity of infection (MOI) of 0.1 during a one-hour adsorption period at 37° C. in a humidified 5% CO2 atmosphere. Subsequently, cells were cultured in 96-well microplates (100 μL/well; 2×10^6 cells/mL, triplicate wells) in the presence of various inhibitor concentrations. Aliquots of culture supernatants were removed from the wells on the 7th day after infection for p24 antigen p24 enzyme immunoassays (EIA), as previously described in Erice et al., 1993, Antimicrob. Ag. Chemotherapy 37:385-838. The applied p24 EIA was the unmodified kinetic assay commercially available from Coulter Corporation/Immunotech, Inc. (Westbrook, Me.). Percent inhibition of viral replication was calculated by comparing the p24 values from the test substance-treated infected cells with p24 values from untreated infected cells (i.e, virus controls).
(§3) RT-MDR was obtained through the AIDS Research and Reference Reagent Program, from Dr. Bendan Larder, and is described in Larder et al., 1993, Nature, 365, 451-453.

[3] = tested on: RT Y181C mutant A17 strain; experiment: microbe, parasite or virus in culture; type: cell-based, HIV-1; settings: for IC50: read-out: IC50 A17
Experimental: as §1, §2, §3

[4] = target: T1, purified recombinant HIV RT (Human immunodeficiency virus type 1 group M subtype B, UniProt P03366); experiment: Purified RT assay, cell-free Quan-T-RT scintillation proximity assay; type: biochemical
T1 construct: Addition of 10 mU of recombinant HIV RT
Experimental: In the assay, a DNA/RNA template is bound to SPA beads via a biotin/strepavidin linkage. The primer DNA is a 16-mer oligo(T) which has been annealed to a poly(A) template. The primer/template is bound to a strepavidin-coated SPA bead.
^3H-TTP is incorporated into the primer by reverse transcription. […] The compound being tested was added to the reaction mixture at 0.001 μM-100 μM concentrations. […] The reaction was stopped by addition of 0.2 ml of 120 mM EDTA. The samples were counted in an open window using a Beckman LS 7600 instrument and IC50 values were calculated by comparing the measurements to untreated samples.

HIV-1 strain HTLVIIIB = experiment: Inhibition of HIV p24 antigen production in PBMC, strain HTLVIIIB; type: cell-based; settings: read-out: IC50 HTLVIIIB
Experimental: as §1, §2, §3

[5] = tested on: A17 variant with both Y181C and K103N mutations in RT; experiment: microbe, parasite or virus in culture; type: cell-based, HIV-1; settings: read-out: IC50 A17 variant
Experimental: as §1, §2, §3

[6] = ranking order of potency, read-out: IC50 against RT-MDR
[7] = recombinant HIV RT, 37° C., 1 hour, read-out: IC50 rRT
[8] = Human immunodeficiency virus 1, PBMC, 168 h, read-out: IC50 RT-MDR
[9] = Human immunodeficiency virus 1, PBMC, read-out: IC50 against RT-MDR
[10] = Human immunodeficiency virus 1, PBMC, 168 h

Row | Structure (SMILES) | CC50 [1] | IC50 [4, 7] | melting point | IC50 [2, 8] | IC50 [2, 9] | IC50 (HIV-1 strain HTLVIIIB; [10]) | IC50 [3, 10] | IC50 [5, 10] | IC50 [4] | other results
1 | Cc1cn([C@H]2C[C@H](N=[N+]=[N-])[C@@H](CO)O2)c(=O)[nH]c1=O [AZT, reference compound] | > 100000 nM |  |  |  |  |  |  |  |  | IC50 [2, 6]: 200 nM; IC50 ([3]; p24 production in PBMC, day 7): 6 nM
2 | S=C(NCCc1ccccn1)Nc1ccc(Br)cn1 [Trovirdine, N-[2-(5-Bromopyridinyl)]-N′-[2-(Pyridinyl)]thiourea, reference compound] | > 100000 nM | 800 nM |  |  |  |  |  |  |  | IC50 [2, 6]: 20 nM; IC50 (HIV-1 strain HTLVIIIB; p24 production in PBMC, day 7): 7 nM; IC50 ([3]; p24 production in PBMC, day 7): 500 nM; IC50 ([5]; p24 production in PBMC, day 7): > 100000 nM
3 | CC1(C)C2CCC(CNC(=S)Nc3ccc(Br)cn3)C1C2 (stereo not drawn) [HI-444, N-[2-(5-Bromopyridinyl)]-N′-[2-(2-Myrtanyl)]thiourea] |  | > 100000 nM | 180 to 181 °C |  |  |  |  |  |  | 
4 | CC(C)Nc1cccnc1N1CCN(C(=O)c2cc3cc(NS(C)(=O)=O)ccc3[nH]2)CC1 [Delavirdine, reference compound] | 3600 nM |  |  | 400 nM | 400 nM | 9 nM | 50000 nM | > 100000 nM |  | 
5 | FC(F)(F)c1ccc(NC(=S)NCCC2=CCCCC2)nc1 [HI-347, N-[2-(5-Trifluoromethylpyridinyl)]-N′-[2-(1-Cyclohexenyl)ethyl]thiourea] | > 100000 nM |  | 161 to 162 °C | 38 nM |  | 79 nM | 300 nM | > 100000 nM | 4000 nM | 
6 | S=C(NCCC1C2CC3CC(C2)CC1C3)Nc1ccc(Br)cn1 (stereo not drawn) [HI-504, N-[2-(5-Bromopyridinyl)]-N′-[2-(2-Adamantyl)]thiourea] |  | > 100000 nM |  |  |  |  |  |  |  | 
7 | Cc1ccnc2c1NC(=O)c1cccnc1N2C1CC1 [Nevirapine, reference compound] | 10500 nM |  |  | 5000 nM | 5000 nM | 34 nM | > 100000 nM | > 100000 nM |  | 
8 | CCOCn1c(Cc2ccccc2)c(C(C)C)c(=O)[nH]c1=O [MKC-442, reference compound] | > 100000 nM | 800 nM |  | 300 nM | 300 nM |  |  |  |  | 
9 | S=C(NCCC1=CCCCC1)Nc1ccc(Br)cn1 [HI-346, N-[2-(5-Bromopyridinyl)]-N′-[2-(1-Cyclohexenyl)ethyl]thiourea] | > 100000 nM |  | 172 to 173 °C | 1 nM | 1 nM | 3 nM |  | 18700 nM | 400 nM | toxicity at effective concentrations [1]: Neither compound exhibited significant toxicity; times more effective against RT-MDR than against HTLVIIIB [2]: 3 times; times more potent than AZT against RT-MDR [2]: 200 times; times more potent than MKC-442 against RT-MDR [2]: 300 times; times more potent than delavirdine against RT-MDR [2]: 400 times; times more potent than nevirapine against RT-MDR [2]: 5000 times; times more potent than trovirdine against RT-MDR [2]: 20 times
10 | S=C(NCCC1=CCCCC1)Nc1ccc(Cl)cn1 [HI-445, N-[2-(5-Chloropyridinyl)]-N′-[2-(1-Cyclohexenyl)ethyl]thiourea] | > 100000 nM |  | 165 °C | 1 nM | 1 nM | 3 nM | 68 nM | 30000 nM | 500 nM | toxicity at effective concentrations [1]: Neither compound exhibited significant toxicity; times more effective against RT-MDR than against HTLVIIIB [2]: 3 times; times more potent than AZT against RT-MDR [2]: 200 times; times more potent than MKC-442 against RT-MDR [2]: 300 times; times more potent than delavirdine against RT-MDR [2]: 400 times; times more potent than nevirapine against RT-MDR [2]: 5000 times; times more potent than trovirdine against RT-MDR [2]: 20 times; fold more effective than nevirapine or delavirdine against A17 ([3]; vs nevirapine or delavirdine): > 1,400 fold; fold more effective than trovirdine against A17 ([3]; vs trovirdine): > 7 fold
